Tests used:
Ba/F3 BCR-ABL1 WT = assay: Cell growth inhibitory activity test (CellTiter-Glo); assay type: cell-based; conditions: Mus musculus, BaF3, 72 hours
Text: The inhibitory effects of the compounds of the examples on the activity of Ba/F3 parental cells, Ba/F3 Bcr-Abl wild-type and mutant cells were detected.
This test used the Celltiter-Glo (CTG) kit (a homogeneous method for cell viability detection) provided by Promega to determine the cell viability of cultured cells by quantifying ATP. Ba/F3 parental cells were purchased from RIKEN BRC, catalog number RCB0805; other cells containing BCR-ABL1 wild-type and mutants were monoclonal engineered cell lines obtained by transfecting Ba/F3 parental cells with lentiviral plasmids containing WT or corresponding mutations of BCR-ABL1.
The steps for cell viability detection are as follows: • a) Collect cells in the logarithmic growth phase, prepare a cell suspension and count the cells to calculate the cell concentration. • b) After diluting the cell suspension to the desired concentration, add it to the inner wells of the 96-well plate, and add PBS to the edge wells. Wells containing only culture medium without cells serve as blank controls. • c) In addition to the cell plate used for compound analysis, prepare another 96-well plate as the T0 plate, adding 3-6 blank wells and 3-6 cell wells. Perform CTG assay the next day to measure cell viability, which serves as the T0 viability value for the cells. • d) Place the cell plate in a 37°C, 5% CO2 incubator and culture overnight. • e) The next day, add gradient-diluted compounds at various concentrations, and place the cell plate in a 37°C, 5% CO2 incubator for 72 hours.
The following nonlinear fitting formula was used to obtain the IC50 (half maximal inhibitory concentration) of the compounds: Y = Bottom + (Top−Bottom)/(1+10(LogIC50−X)∗HillSlope) [formula] • Y: Inhibition rate (%inhibition) • X: Logarithmic value of compound concentration • Top: Maximum response • Bottom: Baseline response • HillSlope: Slope of the curve

[1] = tested on: accelerated phase (AP) chronic myeloid leukemia (CML); assay: Phase I dose escalation and dose expansion clinical trial: efficacy in CML-AP subjects; assay type: in vivo, humans
Text: This study is a single-arm, open-label, dose-escalation and dose-expansion Phase I clinical trial.
The dose-escalation phase of this trial consists of about 8 dose groups, with oral administration under fasting conditions. Subjects in all dose groups will receive a single dose on Day 1 (D1), followed by pharmacokinetic (PK) and tolerability observations. […] After entering the multiple-dose period, subjects in the first dose group will initially receive twice-daily (BID) dosing (if PK data from the single-dose period are available, the dosing frequency during the multiple-dose period may be adjusted based on the PK data). The dosing frequency for subjects in subsequent dose groups after entering the multiple-dose period will be determined based on available PK and tolerability data. Throughout the trial, dosing frequency for all subjects may be adjusted based on continuously updated safety and PK data.
A continuous reassessment method (CRM) based on the principle of the escalation with overdose control (EWOC) design will be used to recommend the next specific dose for each dose escalation, thereby completing dose escalation and determining the maximum tolerated dose (MTD). If both the investigator and sponsor believe that higher dose groups may offer better efficacy and manageable safety, the EWOC-based CRM method may be used to explore higher doses. All enrolled subjects will receive long-term treatment with the test drug and undergo evaluations for safety, tolerability, and preliminary efficacy.
After obtaining certain research data from the dose-escalation phase, the investigator may comprehensively consider safety, efficacy, and other information to decide whether to enroll additional subjects at the MTD and/or lower dose levels to determine the recommended Phase II dose (RP2D). Two to four suitable dosing regimens will be selected for expansion in the target population (including subjects enrolled at the target dose levels during the escalation phase).
A total of 8 dose groups were established: 10 mg bid, 20 mg bid, 40 mg bid, 80 mg bid, 40 mg qd, 80 mg qd, 160 mg qd, and 240 mg qd.
The dose expansion phase was conducted in the following 3 cohorts: • Cohort 1: Subjects with chronic phase (CP) chronic myeloid leukemia (CML) who had previously received at least ≥2 different TKIs and were T315I-negative. A total of 3 dose groups were established: 40 mg qd, 80 mg qd, and 240 mg qd; • Cohort 2: Subjects with chronic phase (CP) chronic myeloid leukemia (CML) who have previously received ≥1 TKI and were T315I-positive. A total of 2 dose groups were established: 40 mg qd and 240 mg qd; • Cohort 3: Subjects with accelerated phase (AP) chronic myeloid leukemia (CML) who have previously received ≥1 TKI, regardless of T315I positivity. A total of 1 dose group was established: 240 mg qd.

[2] = CML-AP subjects previously treated with ponatinib, olverembatinib, asciminib, and/or HS-10382, as of June 2, 2024
[3] = CML-AP subjects, all doses, 44 evaluable, as of August 24, 2023
[4] = CML-AP subjects, 42 evaluable, as of June 2, 2024
[5] = CML-AP subjects, as of August 24, 2023
[6] = CML-AP subjects, as of June 2, 2024
[7] = CML-AP, failed or intolerant to third or above generations of TKI therapy
[8] = CML-AP, failed or intolerant to third or above generations of TKI therapy, 28 evaluable
[9] = CML-AP, failed or intolerant to third or above generations of TKI therapy, Kaplan-Meier method
[10] = CML-AP, 10 mg BID, 1 evaluable subject, as of August 24, 2023
[11] = CML-AP, 20 mg BID, 3 evaluable subjects, as of August 24, 2023
[12] = CML-AP, 40 mg BID, 4 evaluable subjects, as of August 24, 2023
[13] = CML-AP, 40 mg QD, 2 evaluable subjects, as of August 24, 2023
[14] = CML-AP, 40 mg/day Total, 5 evaluable subjects, as of August 24, 2023
[15] = CML-AP, 80 mg BID, 0 evaluable subjects, as of August 24, 2023
[16] = CML-AP, 80 mg QD, 4 evaluable subjects, as of August 24, 2023
[17] = CML-AP, 80 mg/day Total, 8 evaluable subjects, as of August 24, 2023
[18] = CML-AP, 160 mg QD, 3 evaluable subjects, as of August 24, 2023
[19] = CML-AP, 160 mg/day Total, 3 evaluable subjects, as of August 24, 2023
[20] = CML-AP, 240 mg QD, 27 evaluable subjects, as of August 24, 2023
[21] = CML-AP, Total, all dose groups, 44 evaluable subjects, as of August 24, 2023

O=C(Nc1ccc(OC(F)(F)Cl)cc1)c1cnc(N2CC[C@@H](F)C2)c(-c2cnccn2)c1 [Compound A, (R)-N-(4-(chlorodifluoromethoxy)phenyl)-6-(3-fluoropyrrolidin-1-yl)-5-(pyrazin-2-yl)nicotinamide]
IC50 (Ba/F3 BCR-ABL1 WT): 4.11 ± 0.05 nM
18-month cumulative incidence rate of CCyR [1, 2]: 17%
18-month cumulative incidence rate of MCyR [1, 2]: 23%
CCyR [1, 3]: 18.2%
MCyR [1, 3]: 34.1%
MMR [1, 3]: 4.5%
MaHR ([1]; CML-AP subjects, all doses, 46 evaluable, as of August 24, 2023): 84.8%
CHR within 3 treatment cycles [1, 4]: 79%
MaHR within 3 treatment cycles [1, 4]: 83%
median time to MCyR [1, 5]: 2.76 (0.95, 5.52) months
median time to MMR [1, 5]: 5.54 (2.79, 8.28) months
18-month cumulative incidence of CCyR [1, 6]: 30%
18-month cumulative incidence of MCyR [1, 6]: 35%
18-month cumulative incidence of MMR [1, 6]: 14%
median EFS [1, 7]: 8.41 months
median PFS [1, 7]: not reached
median duration of MaHR response [1, 7]: not reached
median time to achieve CCyR [1, 7]: 5.59 (4.16, 6.92) months
median time to achieve MCyR [1, 7]: 2.69 (2.69, 5.55) months
CCyR [1, 8]: 14.3%
MCyR [1, 8]: 25.0%
MMR [1, 8]: 3.6%
MaHR [1, 8]: 78.6%
12-month EFS rate [1, 9]: 42.5%
12-month PFS rate [1, 9]: 79.9%
CCyR [1, 10]: 0 n (%)
MCyR [1, 10]: 0 n (%)
MMR [1, 10]: 0 n (%)
MaHR [1, 10]: 1 (100) n (%)
CCyR [1, 11]: 1 (33.3) n (%)
MCyR [1, 11]: 1 (33.3) n (%)
MMR [1, 11]: 0 n (%)
MaHR [1, 11]: 3 (100) n (%)
CCyR [1, 12]: 0 n (%)
MCyR [1, 12]: 1 (25.0) n (%)
MMR [1, 12]: 0 n (%)
MaHR [1, 12]: 3 (75.0) n (%)
CCyR [1, 13]: 0 n (%)
MCyR [1, 13]: 1 (50.0) n (%)
MMR [1, 13]: 0 n (%)
MaHR [1, 13]: 1 (50.0) n (%)
CCyR [1, 14]: 1 (20.0) n (%)
MCyR [1, 14]: 2 (40.0) n (%)
MMR [1, 14]: 0 n (%)
MaHR [1, 14]: 4 (80.0) n (%)
CCyR [1, 15]: 0 n (%)
MCyR [1, 15]: 0 n (%)
MMR [1, 15]: 0 n (%)
MaHR [1, 15]: 0 n (%)
CCyR [1, 16]: 0 n (%)
MCyR [1, 16]: 0 n (%)
MMR [1, 16]: 0 n (%)
MaHR [1, 16]: 3 (75.0) n (%)
CCyR [1, 17]: 0 n (%)
MCyR [1, 17]: 1 (12.5) n (%)
MMR [1, 17]: 0 n (%)
MaHR [1, 17]: 6 (75.0) n (%)
CCyR [1, 18]: 0 n (%)
MCyR [1, 18]: 1 (33.3) n (%)
MMR [1, 18]: 0 n (%)
MaHR [1, 18]: 3 (100) n (%)
CCyR [1, 19]: 0 n (%)
MCyR [1, 19]: 1 (33.3) n (%)
MMR [1, 19]: 0 n (%)
MaHR [1, 19]: 3 (100) n (%)
CCyR [1, 20]: 7 (25.9) n (%)
MCyR [1, 20]: 11 (40.7) n (%)
MMR [1, 20]: 2 (7.4) n (%)
MaHR ([1]; CML-AP, 240 mg QD, 29 evaluable subjects, as of August 24, 2023): 25 (86.2) n (%)
CCyR [1, 21]: 8 (18.2) n (%)
MCyR [1, 21]: 15 (34.1) n (%)
MMR [1, 21]: 2 (4.5) n (%)
MaHR ([1]; CML-AP, Total, all dose groups, 46 evaluable subjects, as of August 24, 2023): 39 (84.8) n (%)
